# According to patent US5210089A, “D-rhamnono-1,5-lactone” (Monsanto Company, priority 1992, dated 1993):
# Target: T1, β-mannosidase (Homo sapiens, UniProt O00462)
# T1 sequence (O00462 18-879): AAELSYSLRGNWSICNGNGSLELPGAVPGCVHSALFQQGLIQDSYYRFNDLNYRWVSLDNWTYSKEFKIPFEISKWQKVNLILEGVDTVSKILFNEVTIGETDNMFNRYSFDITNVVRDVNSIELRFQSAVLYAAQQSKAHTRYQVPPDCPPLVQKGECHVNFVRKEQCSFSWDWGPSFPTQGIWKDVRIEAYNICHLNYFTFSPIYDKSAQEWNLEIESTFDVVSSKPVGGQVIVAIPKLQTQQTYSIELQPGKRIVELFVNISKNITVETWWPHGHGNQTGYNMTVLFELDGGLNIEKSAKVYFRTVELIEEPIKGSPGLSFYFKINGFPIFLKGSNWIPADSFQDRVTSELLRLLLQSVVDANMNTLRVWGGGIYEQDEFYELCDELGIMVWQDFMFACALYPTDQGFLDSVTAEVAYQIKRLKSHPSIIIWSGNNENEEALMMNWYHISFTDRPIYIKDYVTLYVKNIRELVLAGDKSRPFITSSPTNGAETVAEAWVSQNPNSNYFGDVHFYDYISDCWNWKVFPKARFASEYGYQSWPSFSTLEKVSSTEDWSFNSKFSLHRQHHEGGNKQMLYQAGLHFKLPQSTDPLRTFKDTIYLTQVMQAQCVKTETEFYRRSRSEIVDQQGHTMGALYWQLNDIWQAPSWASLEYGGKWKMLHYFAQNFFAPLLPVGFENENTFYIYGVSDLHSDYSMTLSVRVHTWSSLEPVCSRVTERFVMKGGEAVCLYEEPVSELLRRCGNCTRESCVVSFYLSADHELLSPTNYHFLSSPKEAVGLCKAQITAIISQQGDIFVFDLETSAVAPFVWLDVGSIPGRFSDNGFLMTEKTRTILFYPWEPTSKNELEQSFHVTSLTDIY
# Assay: Human liver glycosidase assay, β-mannosidase
# Type: biochemical
# Set-up: human liver extracts; from tissue; host or cells: human liver extracts
# Description: Melting points were recorded on a Kofler hot block. Proton nuclear magnetic resonance (δH) spectra were recorded on Varian Gemini 200 (at 200 MHz), Bruker WH 300 (300 MHz), or Bruker AM 500 (500 MHz) spectrometers. Carbon nuclear magnetic resonance (δC) spectra were recorded on a Varian Gemini 200 (50 MHz) or a Bruker 250 (62.9 MHz) spectrometer. Multiplicities were assigned using DEPT sequence on the Gemini and by off resonance decoupling on the Bruker. Spectra run in D2 O were referenced to methanol as an internal standard. All chemical shifts are quoted on the δ-scale. Infrared spectra were recorded on a Perkin-Elmer 297, or on a Perkin-Elmer 781 spectrophotometer. Mass spectra were recorded on VG Micromass 30F, ZAB lF, Masslab 20-250 or Trio-1 GCMS (DB-5 column) spectrometers using desorption chemical ionization (NH3 DCI), electron impact (EI), chemical ionization (NH3 CI) and fast atom bombardment (FAB) techniques, as stated. […] Concentrations were given in g/100 ml. Hydrogenations were run under an atmosphere of hydrogen gas maintained by inflated balloon. Microanalyses were performed by the microanalysis service of the DysonPerrins laboratory, Oxford UK. Thin layer chromatography (t.l.c.) was carried out on aluminum sheets coated with 60F254 silica. Plates were developed using either 5% v/v concentrated sulphuric acid in methanol, 0.2% w/v cerium (IV) sulphate and 5% ammonium molybdate in 2M sulphuric acid and 0.5% ninhydrin in methanol. Flash chromatography was carried out using Sorbsil C60 40/60 silica. Ion-exchange chromatography was performed using Dowex 50W-X8 (H) and Sigma CG 400 (Cl) resins. The resins were washed with 2M hydrochloric acid and 2M sodium hydroxide solution, respectively, and subsequently with distilled water, prior to use. Solvents and commercially available reagents were dried and purified before use according to standard procedures; dichloromethane was refluxed over and distilled from calcium hydride, N,N-dimethylformamide was distilled under reduced pressure from calcium hydride, methanol was distilled from magnesium methoxide, pyridine was distilled from, and stored over, potassium hydroxide and tetrahydrofuran was distilled from a purple solution of sodium benzophenone ketyl immediately before use. Hexane was distilled at 68° C. before use to remove involatile fractions. 2,3-O-Isopropylidene-L-gulono-1,4-lactone (9) [H. Ogura et al., J. Oro. Chem. 37, 72 (1972); G. W. J. Fleet Tetrahedron 45, 319 (1989)]and 2,3-O-isopropylidene-D-gulono-1,4-lactone (15) [L. M. Lerner et al., J. Org. […]
# The enzymes included human liver glycosidases and naringinase. The latter enzyme is a readily available endo-L-rhamnosidase described by Romero et al., Anal. Biochem. 149, 566 (1985).
compound,measurement,setting,value
"C[C@H]1NC(=O)[C@@H](O)[C@@H](O)[C@@H]1O [D-Rhamno-1,5-lactam (6), 6-Deoxy-D-mannono-δ-lactam]",Inhibition of β-mannosidase (in words),,inhibitor of α- and β-mannosidases
"C[C@@H]1NC(=O)[C@H](O)[C@H](O)[C@H]1O [L-Rhamno-1,5-lactam (8), 6-Deoxy-L-mannono-δ-lactam]",Inhibition of β-mannosidase (in words),,no inhibitory activity
"O=C1N[C@H](CO)[C@@H](O)[C@H](O)[C@@H]1O [Mannono-1,5-lactam (2), D-mannonolactam]",IC50,,10 µM
same,inhibition at 1000 µM,"read-out: Inhibition (%) at 1 mM, β-mannosidase",99%
